In US20090081153A1, “COMBINATION OF SYNTHETIC ANTIMICROBIAL POLYMERS AND SESQUITERPENOID COMPOUNDS” (POLYMEDIX, INC., priority 2007, published 2009):

Experiments:
E. coli ATCC 25922 = assay: Inactivation kinetics, E. coli ATCC 25922 viability; type: cell-based; conditions: Compound C 31.25 μg/ml, Nerolidol 200 μM
Source text: The surviving cell numbers (log10) were plotted against time for each treatment. The average slopes were obtained using linear regression analysis and were used to calculate D-values for each treatment using D=−1/slope.

E. coli = assay: Antimicrobial disc assay against E. coli; type: cell-based; conditions: another assay, comparison with traditional antibiotics; results not shown

Compound | D-value (Decimal log reduction time) (E. coli ATCC 25922; D=−1/slope of log10 survivors vs time) [min] | Surviving cell numbers (E. coli ATCC 25922; Time 0 min) [log10] | Surviving cell numbers (E. coli ATCC 25922; Time 5 min) [log10] | Surviving cell numbers (E. coli ATCC 25922; Time 10 min) [log10] | Surviving cell numbers (E. coli ATCC 25922; Time 15 min) [log10] | Surviving cell numbers (E. coli ATCC 25922; Time 30 min) [log10] | Impact of sesquiterpenoids on activity against E. coli (E. coli)
C=CC(C)(O)CCC=C(C)CCC=C(C)C (mixture of isomers) [Nerolidol, nerolidol] | 260.80 | 8.83 | 8.80 | 8.79 | 8.79 | 8.77 | –
gentamicin | – | – | – | – | – | – | no impact
CN[C@H](CC(C)C)C(=O)N[C@H]1C(=O)N[C@@H](CC(N)=O)C(=O)N[C@H]2C(=O)N[C@H]3C(=O)N[C@H](C(=O)N[C@H](C(=O)O)c4cc(O)cc(O)c4-c4cc3ccc4O)[C@H](O)c3ccc(c(Cl)c3)Oc3cc2cc(c3O[C@@H]2O[C@H](CO)[C@@H](O)[C@H](O)[C@H]2O[C@H]2C[C@](C)(N)[C@H](O)[C@H](C)O2)Oc2ccc(cc2Cl)[C@H]1O [vancomycin] | – | – | – | – | – | – | no impact
